This is an account of results in PMC12373846, “Hemoglobin as a pseudoperoxidase and drug target for oxidative stress-related diseases” (Signal Transduction and Targeted Therapy, 2025).

Read-outs that look alike come from different tables or passages of the source.

One assay deals with T1, Hb (Homo sapiens, UniProt P68871).
T1 construct: purchased Sigma-Aldrich H7379
Kind of assay: ROS-Glo H2O2 assay with Hb. The class given is biochemical. The conditions noted are these: for remaining H2O2 normalized to no Hb: Fig. 2d; for fold change in H2O2 decomposition (Hb pseudoperoxidase activity per 0.5 h): 30-min window, Fig. 2b. On the procedure:
Hb (Sigma‒Aldrich, H7379), H2O2 (Sigma‒Aldrich, H1009), and Amplex Red reagents (Invitrogen, A12222) were obtained for the study. A 4 μM H2O2 solution was prepared in 50 mM sodium phosphate buffer (pH 7.2). Then, 49 μl of this mixture was mixed with 1 μl of the test compound in DMSO or distilled water. The mixture was combined with an assay mixture of Amplex Red reagent (20 mM stock to 0.1 mM) and HRP (200 U/ml stock to 0.2 U/ml) and added to the wells at 50 μl/well. After a 60-min incubation at 37 °C, resorufin production was quantified via a microplate fluorescence reader (SpectraMax iD5, Molecular Devices) at ex/em = 535/580 nm. […] For the ROS-Glo assay, the H2O2 substrate solution and ROS-Glo detection solution were prepared according to the manufacturer’s instructions. 10 μM H2O2 and drugs were prepared as in the Amplex Red assay, with HRP, Hb, CAT, or GPx added as needed. The mixture was added to the wells at 100 μl/well and incubated for 60 min at 37 °C. H2O2 substrate solution was added, and the mixture was incubated at room temperature for 30 min. After the H2O2 substrate solution was added and incubated at room temperature for 30 min, the ROS-Glo detection solution was added, and the mixture was incubated for 15 min. Luminescence was measured via iD5 microplate readers. […] The U/ml was calculated on the basis of the amount of H2O2 reduced by Hb during the reaction, using μg/ml and U/mg.
To evaluate the extent of peroxidase function facilitation by HTPEB (1 μM) and KDS12025 (1 μM) in HRP (0.2 U/ml) and Hb (10 μg/ml), we used the ROS-Glo assay over 30 and 60 min. The fold change was calculated by dividing the delta values during the 30-min reaction for the vehicle over drug conditions.
To assess enzyme activity, the amount of H2O2 consumed over a specific time was quantified alongside a standard curve. For the peroxidase function of Hb, Hb was administered at doses ranging from 0.01 to 112 U/ml and preincubated with H2O2 and either DMSO, HTPEB (1 μM), or KDS12025 (1 μM) at 37 °C for 30 min. The remaining H2O2 was measured via the ROS-Glo assay and normalized against conditions without Hb. The dose‒response curve, EC50, and EC20 for H2O2 decomposition were calculated and determined by fitting the data with GraphPad Prism software. The fitting method had no special handling of outliers, and least squares regression with confidence intervals of the parameters was 95%.

A short description of assay [1]: ROS-Glo H2O2 assay without HRP or Hb. The class given is biochemical. The conditions noted are these: ROS-Glo assay lacking HRP/Hb. On the procedure:
Hb (Sigma‒Aldrich, H7379), H2O2 (Sigma‒Aldrich, H1009), and Amplex Red reagents (Invitrogen, A12222) were obtained for the study. A 4 μM H2O2 solution was prepared in 50 mM sodium phosphate buffer (pH 7.2). Then, 49 μl of this mixture was mixed with 1 μl of the test compound in DMSO or distilled water. The mixture was combined with an assay mixture of Amplex Red reagent (20 mM stock to 0.1 mM) and HRP (200 U/ml stock to 0.2 U/ml) and added to the wells at 50 μl/well. After a 60-min incubation at 37 °C, resorufin production was quantified via a microplate fluorescence reader (SpectraMax iD5, Molecular Devices) at ex/em = 535/580 nm. The H2O2-decomposing activity was estimated via the following equation: (sample fluorescence-blank fluorescence)/(control […]-blank fluorescence) × 100. For the ROS-Glo assay, the H2O2 substrate solution and ROS-Glo detection solution were prepared according to the manufacturer’s instructions. 10 μM H2O2 and drugs were prepared as in the Amplex Red assay, with HRP, Hb, CAT, or GPx added as needed. The mixture was added to the wells at 100 μl/well and incubated for 60 min at 37 °C. H2O2 substrate solution was added, and the mixture was incubated at room temperature for 30 min. After the H2O2 substrate solution was added and incubated at room temperature for 30 min, the ROS-Glo detection solution was added, and the mixture was incubated for 15 min. Luminescence was measured via iD5 microplate readers. The H2O2-decomposing activity was estimated via the following equation: (sample luminescence-blank luminescence)/(control luminescence-blank luminescence) × 100. The U/ml was calculated on the basis of the amount of H2O2 reduced by Hb during the reaction, using μg/ml and U/mg.

For a further assay, the system named is APP/PS1 mice. Briefly: Passive avoidance test, APP/PS1 mice. The class given is in vivo, mouse. On the procedure:
For an animal model of AD, both sexes of 10- to 18-month-old APP/PS1 mice were maintained and used as previously described.[76],[77] To test the effects of novel H2O2-decomposing enhancers in the AD model, the mice were treated by i.p. injection with KDS12008 (3 mg/kg/day), KDS12017 (3 mg/kg/day), or KDS12025 (3 or 10 mg/kg/day) once per day for 1 or 2 weeks, depending on the experimental protocol. All drugs were dissolved in 200 μl of saline, and the amount of each drug was calculated on the basis of the weight (kg) of the mouse. Moreover, KDS12025 (3 mg/kg/day) was orally administered to the AD model for 2 weeks ad libitum.
Sufficiently handled mice were ready before the PAT. The mice were placed in a two-compartment (light and dark) shuttle chamber with a shock generator (Ugo Basile, Italy). On the first day, the mice were placed in the light compartment for acquisition. The mice were allowed to explore the light compartment for 60 s, after which the door separating the light and dark compartments was raised to allow the mice to enter the dark compartment. When the mice entered the dark compartment, the separating door was closed immediately, and an electrical foot shock (0.5 mA, 2 s duration) was delivered through the floor grid. The mice were then moved back to the home cage, and the retention trial was conducted 24 h after the acquisition. On the second day, the mice were again placed in the light compartment for the retention trial. After 60 s, the door was raised to allow the mice to enter the dark compartment. The latency to step through the dark compartment before and after the electric shock was recorded for up to 540 s.

[2] abbreviates: Tables S2, S3, read-out: HB-EC50.
The mark [3] stands for this setting: in the presence of Hb, Fig. 1h, read-out: EC50 with Hb (H2O2 decomposition).
Setting [4] is: 3 mg/kg/day i.p., 16 times, Fig. S10b.
Setting [5] is: APP+KDS12025 3 mg/kg/day ad libitum, Fig. 5m.

T1 sequence (P68871 2-147 limits assumed): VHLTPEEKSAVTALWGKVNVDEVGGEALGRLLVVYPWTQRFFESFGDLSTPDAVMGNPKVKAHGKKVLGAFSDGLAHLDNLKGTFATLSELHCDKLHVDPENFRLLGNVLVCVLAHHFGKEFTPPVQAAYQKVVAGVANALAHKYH
T1 sequence (P69905 2-142 partner limits assumed): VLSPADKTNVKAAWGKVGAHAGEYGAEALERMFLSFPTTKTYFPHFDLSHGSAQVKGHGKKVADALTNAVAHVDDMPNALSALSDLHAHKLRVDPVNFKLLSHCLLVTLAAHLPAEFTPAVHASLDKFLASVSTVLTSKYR

As for `O=C(O)c1cc(NCCc2ccc(C(F)(F)F)cc2)ccc1O` [HTPEB, 2-hydroxy-5-[2-(4-trifluoromethyl-phenyl)-ethylamino]-benzoic acid, reference compound], the “remaining H2O2 normalized to no Hb” value is recorded as 84.92±3.034 at Hb (Hb 0.01 U/ml), 81.24±5.607 at Hb (Hb 0.1 U/ml) and 70.82±3.83 on Hb (Hb 1 U/ml). Further, at Hb, the “fold change in H2O2 decomposition (Hb pseudoperoxidase activity per 0.5 h)” value is reported as 2.529±0.6645 fold. For the same compound, the EC50 amounted to 0.155 µM on Hb (setting [2]) and 0.15 µM at Hb (setting [3]). Moreover, on Hb (with HTPEB, Fig. 1f), the “facilitation of H2O2 decomposition by Hb” value is 2 fold. Further, in assay [1], the “H2O2-decomposing activity without HRP or Hb” value was “no activity”.

In the case of `CN(C)c1ccc(NCCc2ccc(C(F)(F)F)cc2)cc1.Cl` [KDS12008, N^1,N^1-dimethyl-N^4-(4-(trifluoromethyl)phenethyl)benzene-1,4-diamine hydrochloride salt], on Hb (setting [2]), the EC50 amounted to 0.067 µM. Further, in the assay with APP/PS1 mice (setting [4]), the “PAT transfer latency, acquisition” value was found to be 44.42±13.85 and the “PAT transfer latency, retrieval” value is 233.6±102.3.

Turning to `CNc1ccc(NCCc2ccc(C(F)(F)F)cc2)cc1.Cl` [KDS12017, N^1-methyl-N^4-(4-(trifluoromethyl)phenethyl)benzene-1,4-diamine hydrochloride salt], the EC50 on Hb (setting [2]) amounted to 0.0862 µM. Further, the EC50 on Hb (setting [3]) worked out at 0.09 µM. Further, in the assay on APP/PS1 mice (setting [4]), the “PAT transfer latency, acquisition” value is 71.53±23.24 and the “PAT transfer latency, retrieval” value was found to be 305.6±137.5. Besides, the “H2O2-decomposing activity without HRP or Hb” value in assay [1] is given as “neither KDS12017 nor KDS12025 degrades H2O2 without Hb”.

For `CNc1ccc(NCCc2ccccc2OC)cc1.Cl` [KDS12025, N^1-(2-methoxyphenethyl)-N^4-methylbenzene-1,4-diamine hydrochloride salt], the “enhancement of Hb pseudoperoxidase activity” value at Hb is on record as 100 fold. In addition, the EC50 was 0.033 µM on Hb (Fig. S1f, read-out: EC50, H2O2 decomposition with human hemoglobin (hHb)); 0.0449 µM at Hb (setting [2]); 0.04 µM on Hb (setting [3]). Moreover, the figures for the “remaining H2O2 normalized to no Hb” value at Hb (Hb 0.01 U/ml), on Hb (Hb 0.1 U/ml) and on Hb (Hb 1 U/ml) were 82.57±2.025, 75.36±1.113 and 62.38±2.923, respectively. In addition, the “H2O2 decomposition at extremely low Hb” value on Hb (Hb 0.04 U/ml, 0.03 μg/ml) is on record as “up to 20%”. At Hb, the “fold change in H2O2 decomposition (Hb pseudoperoxidase activity per 0.5 h)” value was found to be 5.676±0.6374 fold. The “potency relative to HTPEB” value on Hb (ratio of EC50 with Hb) was ~ 4 fold. Further, at Hb (vs Hb alone, Fig. 2e), the “fold decrease of Hb EC20 for H2O2 decomposition” value worked out at 98 fold. In addition, the “fold decrease of Hb EC50 for H2O2 decomposition” value at Hb (vs Hb alone, Fig. 2e) is 4.7 fold. For the same compound, the “PAT transfer latency, acquisition” value in the assay on APP/PS1 mice (setting [4]) was 29.03±6.431; in the assay with APP/PS1 mice (3mpk i.p., 7 times, Fig. S10g), 36.47±13.39; with APP/PS1 mice (10mpk i.p., 7 times, Fig. S10g) it was 66.00±15.30; in the assay with APP/PS1 mice (setting [5]), 21.17±3.843. The “PAT transfer latency, retrieval” value is given as 291.0±68.80 in the assay with APP/PS1 mice (setting [4]); 341.7±71.16 in the assay with APP/PS1 mice (3mpk i.p., 7 times, Fig. S10g); 508.8±49.93 in the assay on APP/PS1 mice (10mpk i.p., 7 times, Fig. S10g); 254.3±56.96 with APP/PS1 mice (setting [5]). Further, the “H2O2-decomposing activity without HRP or Hb” value in assay [1] was “neither KDS12017 nor KDS12025 degrades H2O2 without Hb”.

A word on the EC50: it is the concentration needed to bring the measured effect to its halfway point.
